Measured values taken from US10251949B2, “Stabilized HIV-1 peptide constructs comprising the gp120 C5 domain and gp41 hydrophilic domain” (Bionor Immuno AS, priority 2009, dated 2019).
Bridge positions count the residues as written; N and C are the ends. Ends that are not written are not given here. I, II: the chains in the order shown.

How the values were obtained:
[1] = test system: sera from rabbits immunized with BI400-B binding to C5/gp41 (015/201); test: Competitive ELISA for rabbit sera after immunization with BI400-B; details: for inhibition of antibody binding to C5/gp41 (015/201): antigen 10-1000 μM preincubated with rabbit serum 4° C. overnight, FIG. 3
Procedure: 50-100 μl of a mixture of BI400-015 and -201 (pre-incubated in Coating buffer—0.05M Na2CO3 pH9.6; denoted CB—in cold at 16 μg/ml for each peptide 1-3 days prior to coating) or just CB (background control) was used for coating wells in microtiter plates at 4° C. overnight. Plates were then washed 3× with washing buffer (PBS+1% v/v Triton-X100; denoted WB), followed by 2 h blocking at room temperature (RT) with 200 μl/well of blocking buffer (PBS+1% w/v BSA). Plates were then washed 3× with WB, followed by 1 h incubation at 37° C. with 60-100 μl/well of added rabbit serum samples (diluted 1:10-1:250 final concentration) preincubated together (4° C. overnight) with serial dilutions (ranging from 10-1000 μM final concentration) of 400-SEQ.B, BI400-015, BI400-201, BI400-204d, recombinant gp41 (Shin-Won Scientific, SWO 102 gp41), BI301-23 (irrelevant protein; control), no peptide (i.e. PBS; control), LTNP-sera pools (diluted 1:10 final concentration), or Blood donor sera-pools (diluted 1:10 final concentration; control). Plates were then washed 6× with WB, followed by 1 h incubation at RT with 70 μl/well of Alkaline Phosphatase-conjugated Goat-anti-Rabbit-Ig (6 μg/ml; Dako D0487). Plates were then washed 6× with WB, followed by 10-60 min incubation at RT with 100 μl/well of 0.3% w/v of Phenoftalein monophosphate (Sigma P-5758). Plates were finally quenched by adding 100 μl/well of Quench solution (0.1M TRIS+0.1M EDTA+0.5M NaOH+0.01% w/v NaN3; pH14), followed by ELISA reader (ASYS UVM 340) at 550 nm.

individual human sera = test: ELISA plate seroreactivity of individual human sera (LTNP, HIV chronically infected, blood donors); format: binding; details: FIG. 2, OD
Procedure: Seroreactivities of individual LTNP patient sera to SEQ ID NO: 47 (16 μg) alone and in combination with SEQ ID NO: 6 (16 μg) were determined using an ELISA plate as a solid support. Sheep anti-C5 antibodies were used as a positive control. Optical density (OD) at […] was used as a read out following the enzymatic reaction from protein G coupled to alkaline phosphatase.

C5/gp41 (015/201) = test: Rabbit immunization with BI400-B vaccine, serum ELISA; format: in vivo; details: rabbits immunized intradermally weeks 0, 2 & 6, 500 μg in Freund's adjuvant; in the presence of PBS; FIG. 3
Procedure: New Zealand White female rabbits (n=3) were immunized intradermally at weeks 0, 2 & 6 with 1 ml of BI400-B vaccine consisting of 500 μg BI400-B in 50% V/V Freund's adjuvant (i.e. Complete Freund's adjuvant used for priming, followed by boostings with Incomplete Freund's adjuvant). Individual blood serum was isolated for ELISA.
50-100 μl of a mixture of BI400-015 and -201 (pre-incubated in Coating buffer—0.05M Na2CO3 pH9.6; denoted CB—in cold at 16 μg/ml for each peptide 1-3 days prior to coating) or just CB (background control) was used for coating wells in microtiter plates at 4° C. overnight. Plates were then washed 3× with washing buffer (PBS+1% v/v Triton-X100; denoted WB), followed by 2 h blocking at room temperature (RT) with 200 μl/well of blocking buffer (PBS+1% w/v BSA). […] Plates were finally quenched by adding 100 μl/well of Quench solution (0.1M TRIS+0.1M EDTA+0.5M NaOH+0.01% w/v NaN3; pH14), followed by ELISA reader (ASYS UVM 340) at 550 nm.

| Substance | inhibition of antibody binding to C5/gp41 (015/201) [1] | magnitude of response among LTNP patients compared to patients chronically infected with HIV (individual human sera; individual sera) | responses in blood donors (individual human sera; negative control sera) | binding of sera from immunized rabbits to C5/gp41 peptides (C5/gp41 (015/201)) | cross competition of anti-C5/gp41 rabbit sera by LTNP-sera pools ([1]; LTNP-sera pools diluted 1:10, FIG. 4) |
| --- | --- | --- | --- | --- | --- |
| 201: gp41 peptide (DRPEGIEEEGGERDR) [compound 201] | could be inhibited |  |  |  |  |
| APTKAKRRVVQREKR (Artificial sequene) [SEQ ID NO: 47] |  | greater response | consistently low |  |  |
| BI400-B: SEQ ID NO: 38 and SEQ ID NO: 39 linked via Cys and Lys residues; vaccine antigen (chain 1 GAKRRVVGGCGGAKRRVVQREKRAGEREKRA; chain 2 GKGGIEEEGGRDRDRGGEQDRDR; bridge I:10-II:2 (inferred)) | could be inhibited |  |  | bound to peptides corresponding to C5/gp41 (015/201) | competitively inhibited |
| GGAIVNGSLADDDIVI [204d, peptide derived from C2] | could be inhibited |  |  |  |  |
